From BigSolDB 2.1

| solubility (mole fraction) (in ethanol, 283.15 K) | solubility (mole fraction) (in ethanol, 288.15 K) | solubility (mole fraction) (in ethanol, 293.15 K) | solubility (mole fraction) (in ethanol, 298.15 K) | solubility (mole fraction) (in ethanol, 303.15 K) | solubility (mole fraction) (in ethanol, 308.15 K) | solubility (mole fraction) (in ethanol, 313.15 K) | solubility (mole fraction) (in ethanol, 318.15 K) | solubility (mole fraction) (in ethanol, 323.15 K) | solubility (mole fraction) (in ethyl acetate, 283.15 K) | solubility (mole fraction) (in ethyl acetate, 288.15 K) | solubility (mole fraction) (in ethyl acetate, 293.15 K) | solubility (mole fraction) (in ethyl acetate, 298.15 K) | solubility (mole fraction) (in ethyl acetate, 303.15 K) | solubility (mole fraction) (in ethyl acetate, 308.15 K) | solubility (mole fraction) (in ethyl acetate, 313.15 K) | solubility (mole fraction) (in ethyl acetate, 318.15 K) | solubility (mole fraction) (in ethyl acetate, 323.15 K) | SMILES |
| --- | --- | --- | --- | --- | --- | --- | --- | --- | --- | --- | --- | --- | --- | --- | --- | --- | --- | --- |
| 0.0673 | 0.0698 | 0.0734 | 0.0785 | 0.082 | 0.0854 | 0.0902 | 0.0938 | 0.0985 | 0.109 | 0.115 | 0.118 | 0.125 | 0.128 | 0.133 | 0.137 | 0.142 | 0.15 | COc1cc(C=O)ccc1O |
| 0.0358 | 0.0381 | 0.0414 | 0.0461 | 0.0514 | 0.0559 | 0.0621 | 0.0675 | 0.0735 | 0.00928 | 0.0101 | 0.0114 | 0.0129 | 0.0145 | 0.0164 | 0.0185 | 0.0208 | 0.0232 | O=C(O)/C=C/c1ccc(O)cc1 |
